Laboratory results as given in PubChem BioAssay AID1205 (EPA DSSTox, 2008).
Calls of active or inactive are those of the source.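 How the source made its calls: active means tumour findings in long-term animal cancer tests in more than one sex, species or organ; inactive means no tumour finding and more than one negative test.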

Assay: DSSTox (CPDBAS) Carcinogenic Potency Database Summary MultiCellCall Results
Conditions: animal carcinogenicity bioassays, multi-cell call summary
From the text: The Carcinogenic Potency Database (CPDB) is a unique and widely used international resource of the results of over 6500 chronic, long-term animal cancer tests on over 1500 chemical substances. The CPDB provides easy access to the bioassay literature, with qualitative and quantitative analyses of both positive and negative experiments that have been published over the past 50 years in the general literature and by the National Cancer Institute/National Toxicology Program. The CPDB standardizes the diverse literature of cancer bioassays that vary widely in protocol, histopathological examination and nomenclature, and in the published author's choices of what information to provide in their papers. Results are reported in the CPDB for tests in rats, mice, hamsters, dogs, and nonhuman primates, and are based on the most positive result among all experiments for each sex-species. The DSSTox CPDBAS (all species) file incorporates data from the CPDB Summary Tables for the full list of over 1500 chemical substances tested in at least one species. A summary MultiCellCall, based on experimental bioassay results of one or more species, is provided in the DSSTox CPDBAS file (see Source URL) for more than 1150 chemical substances.
Associated TD50 values and tumor site details for the relevant species/sex experiment supporting the overall CPDBAS MultiSiteCall are provided in the full DSSTox CPDBAS file (see Comment) and the corresponding CPDBAS Species Bioassay in PubChem. ActivityScore is computed as follows: multispecies=50, multisex=30, multisite=20, with combination scores computed as sums of these values, e.g. multispecies+multisite=70.
With `Nc1ccc(Oc2ccc(Cl)cc2)cc1` the outcome was “active; multisite active; multisex active; multispecies active”.
For `CCN(CC)C(=S)SSC(=S)N(CC)CC`, the outcome was “inactive; multisex inactive; multispecies inactive”.
For `O=C(O)COc1cc(Cl)c(Cl)cc1Cl`, the outcome was “inactive; multisex inactive; multispecies inactive”.
For `O=C1O[C@H]([C@H](O)CO)C(O)=C1O`, the outcome was “inactive; multisex inactive; multispecies inactive”.
With `CN(C)C=O` the outcome was “inactive; multisex inactive; multispecies inactive”.
For `Cc1cn([C@H]2C[C@H](N=[N+]=[N-])[C@@H](CO)O2)c(=O)[nH]c1=O`, the outcome was “active; multispecies active”.
In the case of `[N-]=[N+]=O`, the outcome is reported as “inactive; multisex inactive”.
With `CCCCNC(=O)N(CCCC)N=O` the outcome was “active; multisite active”.
With `CN(CCc1ccccc1)N=O` the outcome was “active; multisite active”.
With `ClC(Cl)=C(Cl)C(Cl)=C(Cl)Cl` the outcome was “active; multisex active”.
In the case of `Cn1nc(CO)nc1NCCCOc1cccc(CN2CCCCC2)c1`, the outcome is reported as “active; multisex active”.
For `O=C(O)CCC(=O)O`, the outcome was “inactive; multisex inactive”.
With `Cc1ccc(/C(=C\CN2CCCC2)c2ccccn2)cc1` the outcome was “inactive; multisex inactive; multispecies inactive”.
For `C=C(Cl)CSC(=S)N(CC)CC`, the outcome was “active; multisite active; multisex active; multispecies active”.
In the case of `CC(O)CN(CCO)N=O` (centres undefined), the outcome is reported as “active; multisite active”.
In the case of `CC(=O)OCc1ccccc1`, the outcome is reported as “active; multisite active; multisex active”.
With `O=S(=O)(c1ccc(Cl)cc1)c1cc(Cl)c(Cl)cc1Cl` the outcome was “inactive; multisex inactive”.
With `Nc1ccc(N)c(Cl)c1` the outcome was “inactive; multisex inactive; multispecies inactive”.
For `N[C@@H](Cc1c[nH]c2ccccc12)C(=O)O`, the outcome was “inactive; multisex inactive; multispecies inactive”.
In the case of `CC(O)CN(N=O)C(=O)NCCCl` (centres undefined), the outcome is reported as “active; multisex active”.
In the case of `CC(=O)Nc1nc(-c2ccc([N+](=O)[O-])o2)cs1`, the outcome is reported as “active; multisite active; multisex active; multispecies active”.
In the case of `CC(C)[N+](=O)[O-]`, the outcome is reported as “inactive; multisex inactive”.
With `COc1ccc(O)c(C(C)(C)C)c1` the outcome was “active; multisex active; multispecies active”.
In the case of `Nc1nc(N)nc(-c2ccccc2)n1`, the outcome is reported as “inactive; multisex inactive; multispecies inactive”.
In the case of `CN(C)c1ccc(Cc2ccc(N(C)C)cc2)cc1`, the outcome is reported as “active; multisite active; multisex active; multispecies active”.
In the case of `CN1C(=O)CN=C(c2ccccc2)c2cc(Cl)ccc21`, the outcome is reported as “inactive; multisex inactive; multispecies inactive”.
In the case of `CC(=O)CN(CC(O)CO)N=O` (centres undefined), the outcome is reported as “active; multisite active; multispecies active”.
For `Cc1ccccc1[N+](=O)[O-]`, the outcome was “active; multisite active; multisex active; multispecies active”.
For `C[C@]12CC[C@H](O)CC1=CC[C@@H]1[C@@H]2CC[C@]2(C)C(=O)CC[C@@H]12`, the outcome was “active; multisex active”.
For `CN(C)CCN(Cc1ccsc1)c1ccccn1`, the outcome was “inactive; multisex inactive”.
For `CCCCN(N)CCCC`, the outcome was “active; multisite active; multisex active”.
For `Cc1cccc(OCC(O)CNC(C)(C)C)c1C` (centres undefined), the outcome was “inactive; multisex inactive”.
For `O=S1(=O)CC=CC1`, the outcome was “inactive; multisex inactive; multispecies inactive”.
With `ClC(Cl)(Cl)c1ccccc1` the outcome was “active; multisite active”.
For `CC[C@H]1OC(=O)[C@H](C)[C@@H](O[C@H]2C[C@@](C)(OC)[C@@H](O)[C@H](C)O2)[C@H](C)[C@@H](O[C@@H]2O[C@H](C)C[C@H](N(C)C)[C@H]2O)[C@](C)(O)C[C@@H](C)C(=O)[C@H](C)[C@@H](O)[C@]1(C)O`, the outcome was “inactive; multisex inactive; multispecies inactive”.
In the case of `O=[N+]([O-])c1ccc(Oc2ccc(Cl)cc2Cl)cc1`, the outcome is reported as “active; multisite active; multisex active; multispecies active”.
In the case of `FCCl`, the outcome is reported as “active; multisex active”.
For `Nc1ccc(N)c2c1C(=O)c1c(N)ccc(N)c1C2=O`, the outcome was “active; multisex active”.
For `CN[C@H]1CC[C@@H](c2ccc(Cl)c(Cl)c2)c2ccccc21`, the outcome was “inactive; multisex inactive; multispecies inactive”.
In the case of `COc1cc(N)ccc1N=Nc1ccccc1`, the outcome is reported as “inactive; multisex inactive”.
For `Clc1c(Cl)c(Cl)c(Cl)c(Cl)c1Cl`, the outcome was “active; multisite active; multisex active; multispecies active”.
For `Clc1cccc(-c2ccc(Cl)c(Cl)c2Cl)c1Cl`, the outcome was “active; multisite active; multisex active; multispecies active”.
For `[O-][Br+2]([O-])O`, the outcome was “active; multisite active; multisex active; multispecies active”.
For `CC(C)COC(=O)c1ccc(O)cc1`, the outcome was “inactive; multisex inactive”.
With `Clc1ccc(Cl)cc1` the outcome was “active; multisite active; multisex active; multispecies active”.
For `C=Cc1cccc(C)c1`, the outcome was “inactive; multisex inactive; multispecies inactive”.
With `CCNc1nc(Cl)nc(NC(C)C)n1` the outcome was “active; multisite active; multisex active”.
In the case of `C=CC=C`, the outcome is reported as “active; multisite active; multisex active; multispecies active”.
In the case of `O=C/C(Cl)=C(/Cl)C(=O)O`, the outcome is reported as “inactive; multisex inactive”.
With `CC(=O)C1C(=O)C=C(C)OC1=O` (centres undefined) the outcome was “inactive; multisex inactive”.
For `O=C(OOC(=O)c1ccccc1)c1ccccc1`, the outcome was “inactive; multispecies inactive”.
For `CCOP(=S)(OCC)Oc1ccc([N+](=O)[O-])cc1`, the outcome was “inactive; multisex inactive; multispecies inactive”.
In the case of `CCN(Cc1cccc(S(=O)(=O)O)c1)c1ccc(C(=C2C=CC(=[N+](CC)Cc3cccc(S(=O)(=O)O)c3)C=C2)c2ccccc2S(=O)(=O)[O-])cc1`, the outcome is reported as “inactive; multisex inactive; multispecies inactive”.
With `CCN(CC)N=O` the outcome was “active; multisite active; multisex active; multispecies active”.
With `CCN(CC)C(=O)Nc1ccc(OCC(O)CNC(C)(C)C)c(C(C)=O)c1` (centres undefined) the outcome was “inactive; multisex inactive; multispecies inactive”.
With `C/C=C/C=C/C=O` the outcome was “active; multisex active; multispecies active”.
With `[K+]` the outcome was “active; multisex active”.
In the case of `CCCCCCCCCCCCN(C)N=O`, the outcome is reported as “active; multisite active; multisex active”.
For `O=C1OC(O)C(C(Cl)Cl)=C1Cl` (centres undefined), the outcome was “active; multisite active; multisex active”.
In the case of `CN(C)N`, the outcome is reported as “active; multisite active; multisex active; multispecies active”.
For `CCC(C)c1cc([N+](=O)[O-])cc([N+](=O)[O-])c1O` (centres undefined), the outcome was “inactive; multisex inactive”.
In the case of `CNC(=O)O/N=C/C(C)(C)SC`, the outcome is reported as “inactive; multisex inactive; multispecies inactive”.
In the case of `CC(N)=S`, the outcome is reported as “active; multisex active; multispecies active”.
With `Nc1ccc(Cc2ccc(N)c(Cl)c2)cc1Cl` the outcome was “active; multisite active; multisex active; multispecies active”.
With `CCOC(=O)CC(SP(=S)(OC)OC)C(=O)OCC` (centres undefined) the outcome was “inactive; multisex inactive; multispecies inactive”.
For `CCN(CC)C(=S)S`, the outcome was “inactive; multisex inactive; multispecies inactive”.
With `CC(C)(C)NC[C@H](O)COc1cccc2c1CCCC2=O` the outcome was “inactive; multisex inactive; multispecies inactive”.
With `CCCCOCCO` the outcome was “active; multisite active; multisex active”.
In the case of `CC(O)CN(C)N=O` (centres undefined), the outcome is reported as “active; multisite active; multisex active”.
In the case of `C/C=C1/C[C@@H](C)[C@](O)(CO)C(=O)OCC2=CC[N+]3([O-])CC[C@@H](OC1=O)[C@@H]23` (some centres undefined), the outcome is reported as “active; multisex active”.
With `C[C@@H]1CC2(O[C@@H]2C)C(=O)O[C@@H]2CCN(C)C/C=C(/COC(=O)[C@]1(C)O)C2=O` (some centres undefined) the outcome was “active; multisite active; multisex active”.
For `CCCN(N)C=O`, the outcome was “active; multisite active; multisex active”.
For `CC(=O)Nc1ccc2c(c1)C(=O)c1ccccc1-2`, the outcome was “active; multisite active”.
With `CN(C)C(=O)Nc1cccc(C(F)(F)F)c1` the outcome was “inactive; multisex inactive; multispecies inactive”.
With `CC(C)Oc1ccc(Nc2ccccc2)cc1` the outcome was “inactive; multisex inactive”.
With `CCCCCCCCCCC(C)c1ccc(S(=O)(=O)O)cc1` (centres undefined) the outcome was “inactive; multisex inactive”.
For `ClC1=C(Cl)[C@@]2(Cl)[C@@H]3[C@@H](Cl)[C@H](Cl)C[C@@H]3C1(Cl)C2(Cl)Cl`, the outcome was “active; multisex active”.
For `CCN=c1cc2oc3cc(NCC)c(C)cc3c(-c3ccccc3C(=O)OCC)c-2cc1C`, the outcome was “inactive; multisex inactive; multispecies inactive”.
With `ClC1(Cl)C2(Cl)C3(Cl)C4(Cl)C(Cl)(Cl)C5(Cl)C3(Cl)C1(Cl)C5(Cl)C24Cl` (centres undefined) the outcome was “active; multisite active; multisex active; multispecies active”.
In the case of `COc1c(Cl)c(Cl)c(Cl)c(Cl)c1Cl`, the outcome is reported as “active; multisite active; multispecies active”.
For `C=Cc1ccccc1`, the outcome was “active; multisite active; multisex active; multispecies active”.
With `CCOP(=S)(OCC)Oc1nc(Cl)c(Cl)cc1Cl` the outcome was “inactive; multisex inactive”.
With `CCOC(=O)N(C)N=O` the outcome was “active; multisite active”.
In the case of `BrCCBr`, the outcome is reported as “active; multisite active; multisex active; multispecies active”.
For `Nc1ccc(-c2ccc(F)cc2)cc1`, the outcome was “active; multisex active”.
With `FC(F)OC(F)(F)C(F)Cl` (centres undefined) the outcome was “inactive; multisex inactive”.
In the case of `O=[N+]([O-])c1ccc(-c2nc(N(CCO)CCO)c3ccccc3n2)s1`, the outcome is reported as “active; multisite active”.
With `CC(CN1c2ccccc2Sc2ccccc21)N(C)C` (centres undefined) the outcome was “inactive; multisex inactive; multispecies inactive”.
In the case of `CNC(=O)O/N=C(\SC)C(=O)N(C)C`, the outcome is reported as “inactive; multisex inactive; multispecies inactive”.
